These results are taken from article PMC6467771 (Journal of medicinal chemistry, 2019).

A short description of one data set: Rat pharmacokinetics. To be noted: for renal clearance to the urine: after IV and PO administration. The format is in vivo.
For a further data set, the target named is FmlH (Escherichia coli, UniProt Q1RBS0). It is filed as binding, Escherichia coli (UPEC, CFT073).
Data set [1] can be described thus: Kinetic aqueous solubility. The format is physicochemical. To be noted: pH 7.4; for solubility kinetic: aqueous solution.
The nature of data set [2]: Mouse liver microsome stability. The format is in vitro ADME.
A short description of the next data set: Mouse plasma stability. It is filed as in vitro ADME.
Data set [3] in a line: Stability in simulated intestinal fluid. The format is in vitro ADME.
A short description of data set [4]: Stability in simulated gastric fluid. The format is in vitro ADME.
The subject of data set [5] is uropathogenic Escherichia coli (UPEC). The settings on record: cited from earlier work.
The mark [6] stands for this setting: IC50, ELISA, FmlH binding to desialylated bovine submaxillary mucin, average of four or more replicates.

Values after ≈ are worked out from the molar mass of the structure shown. Read-outs that look alike come from different tables or passages of the source.

Take `CC(=O)NC1[C@H](Oc2cccc(C(F)(F)F)c2-c2cccc(NS(C)(=O)=O)c2)O[C@H](CO)[C@H](O)[C@@H]1O` (stereo in doubt) [Compound 90, N-((2S,3S,4R,5R)-4,5-Dihydroxy-6-(hydroxymethyl)-2-((3’-(meth-ylsulfonamido)-6-(trifluoromethyl)-[1,1’-biphenyl]-2-yl)oxy)-tetrahydro-2H-pyran-3-yl)acetamide]: in the data set “Rat pharmacokinetics”, the “renal clearance to the urine” value is reported as “low renal clearance to the urine”. Moreover, the clearance in “Rat pharmacokinetics” (plasma, iv, 3 mg/kg) turned out to be 57 mL/min/kg. For the same molecule, at FmlH (ELISA IC50 ratio), the “fold greater potency / improvement in activity relative to 1” value is reported as roughly 20 fold. The molecule further returned an IC50 at FmlH (setting [6]) of 34 nM.

As for `CC(=O)N[C@H]1[C@H](Oc2cccc(F)c2-c2cccc(NS(C)(=O)=O)c2)O[C@H](CO)[C@H](O)[C@@H]1O` [Compound 80, N-((2S,3R,4R,5R,6R)-2-((6-Fluoro-3’-(methylsulfonamido)-[1,1’- biphenyl]-2-yl)oxy)-4,5-dihydroxy-6-(hydroxymethyl)tetrahydro-2H-pyran-3-yl)acetamide], the solubility (kinetic) in data set [1] came to 197 µM (≈ 95.4 µg/mL). Further, the IC50 at FmlH (setting [6]) turned out to be 88 nM.

`CC(=O)N[C@H]1[C@H](Oc2ccccc2-c2cccc(C(N)=O)c2)O[C@H](CO)[C@H](O)[C@@H]1O` [Compound 48, 2’-(((2S,3R,4R,5R,6R)-3-Acetamido-4,5-dihydroxy-6 (hydroxymethyl)tetrahydro-2H-pyran-2-yl)oxy)-[1,1’-biphenyl]-3-carboxamide] returned an IC50 at FmlH (setting [6]) of 1600 nM.

`CNC(=O)c1cccc(-c2ccccc2O[C@@H]2O[C@H](CO)[C@H](O)[C@H](O)[C@H]2NC(C)=O)c1` [Compound 47, 2’-(((2S,3R,4R,5R,6R)-3-Acetamido-4,5-dihydroxy-6-(hydroxymethyl)tetrahydro-2H-pyran-2-yl)oxy)-N-methyl-[1,1’-bi-phenyl]-3-carboxamide]: the IC50 at FmlH (setting [6]) turned out to be 3400 nM.

Take `CC(=O)Nc1cccc(-c2ccccc2O[C@@H]2O[C@H](CO)[C@H](O)[C@H](O)[C@H]2NC(C)=O)c1` [Compound 43, N-(2’-(((2S,3R,4R,5R,6R)-3-Acetamido-4,5-dihydroxy-6-(hydroxymethyl)tetrahydro-2H-pyran-2-yl)oxy)-[1,1’-biphenyl]-3-yl)acetamide]: the IC50 at FmlH (setting [6]) was 310 nM.

At FmlH (setting [6]), `CC(=O)N[C@H]1[C@H](Oc2cccc(C(=O)OCc3ccccc3)c2-c2cccc(NS(C)(=O)=O)c2)O[C@H](CO)[C@H](O)[C@@H]1O` [Compound 81, Benzyl6-(((2S,3S,4R,5R)-3-Acetamido-4,5-dihydroxy-6-(hydroxymethyl)tetrahydro-2H-pyran-2-yl)oxy)-3’-(methylsulfona-mido)-[1,1’-biphenyl]-2-carboxylate] yielded an IC50 of 89 nM.

`CC(=O)N[C@H]1[C@H](Oc2ccccc2-c2cccc(C(=O)N(C)C)c2)O[C@H](CO)[C@H](O)[C@@H]1O` [Compound 46, 2’-(((2S,3R,4R,5R,6R)-3-Acetamido-4,5-dihydroxy-6-(hydroxymethyl)tetrahydro-2H-pyran-2-yl)oxy)-N,N-dimethyl-[1,1’- biphenyl]-3-carboxamide]: the IC50 at FmlH (setting [6]) worked out at 3100 nM.

With `COc1ccc(C(=O)O)cc1-c1ccccc1O[C@@H]1O[C@H](CO)[C@H](O)[C@H](O)[C@H]1NC(C)=O` [Compound 31, 2’-(((2S,3R,4R,5R,6R)-3-Acetamido-4,5-dihydroxy-6 (hydroxymethyl)tetrahydro-2H-pyran-2-yl)oxy)-6-methoxy-[1,1’- biphenyl]-3-carboxylic Acid], the “fold drop in activity relative to 1” value on FmlH (ELISA IC50 ratio) came out at 6 fold. This molecule also registered a half-inhibitory concentration (IC50) at FmlH (setting [6]) of 3900 nM.

Regarding `Cc1cccc(O[C@@H]2O[C@H](CO)[C@H](O)[C@H](O)[C@H]2NS(C)(=O)=O)c1-c1cccc(NS(C)(=O)=O)c1` [Compound 89, N-((2S,3R,4R,5R,6R)-4,5-Dihydroxy-6-(hydroxymethyl)-2-((6-methyl-3’-(methylsulfonamido)-[1,1’-biphenyl]-2-yl)oxy)-tetrahydro-2H-pyran-3-yl)methanesulfonamide], on FmlH (setting [6]), the IC50 came to 3500 nM.

`CC(=O)N[C@H]1[C@H](Oc2ccccc2-c2cc(C(=O)O)cc([N+](=O)[O-])c2)O[C@H](CO)[C@H](O)[C@@H]1O` [Compound 29, 2’-(((2S,3S/4R/5R)-3-Acetamido-4,5-dihydroxy-6-(hydroxymethyl)tetrahydro-2H-pyran-2-yl)oxy)-5-nitro-[1, 1’-bi-phenyl]-3-carboxylic Acid] showed a 50% inhibitory concentration (IC50) at FmlH (setting [6]) of 2200 nM.

At FmlH (setting [6]), `CC(=O)NC1[C@H](Oc2cccc(C)c2-c2cccc(NS(=O)(=O)N(C)C)c2)O[C@H](CO)[C@H](O)[C@@H]1O` (stereo in doubt) [Compound 87, N-((2S,3S,4R,5R)-2-((3’-((N,N-Dimethylsulfamoyl)amino)-6-methyl-[1,1’-biphenyl]-2-yl)oxy)-4,5-dihydroxy-6-(hydroxymethyl)-tetrahydro-2H-pyran-3-yl)acetamide] displayed a half-inhibitory concentration (IC50) of 77 nM.

`CC(=O)N[C@H]1[C@H](Oc2cccc(C(=O)O)c2-c2cccc(NS(C)(=O)=O)c2)O[C@H](CO)[C@H](O)[C@@H]1O` [Compound 82, 6-(((2S,3S,4R,5R)-3-Acetamido-4,5-dihydroxy-6 (hydroxymethyl)tetrahydro-2H-pyran-2-yl)oxy)-3 ‘-(methylsulfona-mido)-[1,1’-biphenyl]-2-carboxylic Acid] came in with an IC50 on FmlH (setting [6]) of 66 nM.

In the case of “N-((2S,3S,4R,5R)-4/5-Dihydro xy-6-(hydroxymethyl)-2-((6-methyl-3’-(methylsulfonamido)-[1,1’-biphenyl]-2-yl)oxy)tetrahydro-2H-pyran-3-yl)-2,2,2-trifluoroacetimidic Acid [Compound 88]”, in data set [2], the “mouse liver microsomes (t1/2 min)” value was greater than 145 min. For the same molecule, the kinetic solubility in data set [1] (aqueous) turned out to be 164 µM. Further, in “Mouse plasma stability”, the “mouse plasma (% remaining @ 2 h)” value was determined as 89%. Further, in data set [3], the “SIF (% remaining @ 2 h)” value is 89%. Further, the IC50 on FmlH (ELISA, FmlH binding to desialylated bovine submaxillary mucin, average of four or more replicates) amounted to 48 nM. In data set [4], the “SGF (% remaining @ 6 h)” value is reported as 91%.

`CC(=O)N[C@H]1[C@H](Oc2cccc(C)c2-c2cccc(NS(=O)(=O)C3CC3)c2)O[C@H](CO)[C@H](O)[C@@H]1O` [Compound 86, N-((2S,3R,4R,5R,6R)-2-((3’-(Cyclopropanesulfonamido)-6-meth-yl-[1,1’-biphenyl]-2-yl)oxy)-4,5-dihydroxy-6-(hydroxymethyl)-tetrahydro-2H-pyran-3-yl)acetamide]: the solubility (kinetic) in data set [1] is 196 µM (≈ 99.3 µg/mL). In addition, the “renal clearance to the urine” value in the data set “Rat pharmacokinetics” was “low renal clearance to the urine”. This molecule showed an IC50 on FmlH (setting [6]) of 51 nM.

As to `CC(=O)N[C@H]1[C@H](Oc2ccccc2-c2cccc(C#N)c2)O[C@H](CO)[C@H](O)[C@@H]1O` [Compound 39, N-((2S,3R,4R,5R,6R)-2-((3’-Cyano-[1,1’-biphenyl]-2-yl)oxy)-4,5-dihydroxy-6-(hydroxymethyl)tetrahydro-2H-pyran-3-yl)acetamide], the IC50 on FmlH (setting [6]) came to 970 nM.

As to `CC(=O)N[C@H]1[C@H](Oc2ccccc2-c2cccc(C(=O)O)c2)O[C@H](CO)[C@H](O)[C@@H]1O` [Compound 1], in data set [5] (co-administration with 4Z269, a mannoside inhibitor of FimH), the “effect on bacterial titers in bladder and kidney” value was “further reduced bacterial titers in both the bladder and kidney”. The “effect on bladder and kidney CFUs” value in data set [5] (treatment model of chronic cystitis) was “significantly reduce bladder and kidney CFUs”. This molecule registered an IC50 at FmlH (setting [6]) of 640 nM.

Turning to `CC(=O)N[C@H]1[C@H](Oc2ccccc2-c2cccc(NS(=O)(=O)C(F)(F)F)c2)O[C@H](CO)[C@H](O)[C@@H]1O` [Compound 49, N-((2S,3R,4R,5R,6R)-4,5-Dihydroxy-6-(hydroxymethyl)-2-((3’-((trifluoromethyl)sulfonamido)-[1,1’-biphenyl]-2-yl)oxy)-tetrahydro-2H-pyran-3-yl)acetamide], the 50% inhibitory concentration (IC50) at FmlH (setting [6]) was determined as 1100 nM.

Molecule `CC(=O)N[C@H]1[C@H](Oc2ccccc2-c2cccc(F)c2)O[C@H](CO)[C@H](O)[C@@H]1O` [Compound 36, N-((2S,3R,4R,5R,6R)-2-((3 ‘-Fluoro-[1,1’-biphenyl]-2-yl)oxy)-4,5-dihydroxy-6-(hydroxymethyl)tetrahydro-2H-pyran-3-yl)acetamide] displayed an IC50 on FmlH (setting [6]) of 1500 nM.

Take `CC(=O)N[C@H]1[C@H](Oc2cccc(C)c2-c2cccc(NS(C)(=O)=O)c2)O[C@H](CO)[C@H](O)[C@@H]1O` [Compound 84, N-((2S,3R/4R/5R,6R)-4/5-Dihydroxy-6-(hydroxymethyl)-2-((6-methyl-3’-(methylsulfonamido)-[1,1’-biphenyl]-2-yl)oxy)-tetrahydro-2H-pyran-3-yl)acetamide]: the kinetic solubility in data set [1] came to 195 µM (≈ 93.7 µg/mL). For the same molecule, the half-inhibitory concentration (IC50) on FmlH (setting [6]) is 62 nM; at FmlH (IC50 expressed as a concentration, converted from IC50 of 120 nM) it was 120 nM.
